Measured values reported in US9247741B2, “Use of macrocyclic picolinamides as fungicides” (DOW AGROSCIENCES LLC, priority 2013, dated 2016).
Where two headings read alike, the source gives them in different places.

Key:
Format in all cases: in vivo
[1] = system: Mycosphaerella graminicola; Anamorph: Septoria tritici; assay: Leaf blotch of wheat (SEPTTR) disease control on wheat seedlings; conditions: Zymoseptoria tritici, wheat; for pest or weed control at 121.5 g/ha: 121.5 g/H (low volume track spray); for pest or weed control at 100 ppm: 100 ppm (high volume)
Description: Evaluation of Fungicidal Activity: Leaf Blotch of Wheat (Mycosphaerella graminicola; Anamorph: Septoria tritici; Bayer Code […]) Technical grades of materials were dissolved in acetone, which were then mixed with nine volumes of water containing 110 ppm Triton X-100. The fungicide solutions were applied onto wheat seedlings using an automated booth sprayer to run-off. All sprayed plants were allowed to air dry prior to further handling. All fungicides were evaluated using the aforementioned method for their activity vs. all target diseases. Wheat leaf blotch and brown rust activity were also evaluated using track spray applications, in which case the fungicides were formulated as EC formulations, containing 0.1% Trycol 5941 in the spray solutions. Wheat plants (variety Yuma) were grown from seed in a greenhouse in 50% mineral soil/50% soil-less Metro mix until the first leaf was fully emerged, with 7-10 seedlings per pot. These plants were inoculated with an aqueous spore suspension of Septoria tritici either prior to or after fungicide treatments. After inoculation the plants were kept in 100% relative humidity (one day in a dark dew chamber followed by two to three days in a lighted dew chamber at 20° C.) to permit spores to germinate and infect the leaf. The plants were then transferred to a greenhouse set at 20° C. for disease to develop. When disease symptoms were fully expressed on the l^st leaves of untreated plants, infection levels were assessed on a scale of 0 to 100 percent disease severity. Percent disease control was calculated using the ratio of disease severity on treated plants relative to untreated plants.

Rhyncosporium secalis = assay: Barley scald (RHYNSE) disease control; conditions: Hordeum vulgare, 24 h, 1 Day Protectant, read-out: RHYNSE disease control rating
Description: Technical grades of materials were dissolved in acetone, which were then mixed with nine volumes of water containing 110 ppm Triton X-100. The fungicide solutions were applied onto wheat seedlings using an automated booth sprayer to run-off. All sprayed plants were allowed to air dry prior to further handling. All fungicides were evaluated using the aforementioned method for their activity vs. all target diseases. Wheat leaf blotch and brown rust activity were also evaluated using track spray applications, in which case the fungicides were formulated as EC formulations, containing 0.1% Trycol 5941 in the spray solutions. Wheat plants (variety Yuma) were grown from seed in a greenhouse in 50% mineral soil/50% soil-less Metro mix until the first leaf was fully emerged, with 7-10 seedlings per pot. These plants were inoculated with an aqueous spore suspension of Septoria tritici either prior to or after fungicide treatments. After inoculation the plants were kept in 100% relative humidity (one day in a dark dew chamber followed by two to three days in a lighted dew chamber at 20° C.) to permit spores to germinate and infect the leaf. The plants were then transferred to a greenhouse set at 20° C. for disease to develop. When disease symptoms were fully expressed on the l^st leaves of untreated plants, infection levels were assessed on a scale of 0 to 100 percent disease severity. Percent disease control was calculated using the ratio of disease severity on treated plants relative to untreated plants. Evaluation of Fungicidal Activity: Barley Scald (Rhyncosporium secalis; Bayer code […]) Barley seedlings (variety Harrington) were propagated in soil-less Metro mix, with each pot having 8 to 12 plants, and used in the test when first leaf was fully emerged. Test plants were inoculated by an aqueous spore suspension of Rhyncosporium secalis 24 hr after fungicide treatments. After inoculation the plants were kept in a dew room at 20° C. with 100% relative humidity for 48 hr. The plants were then transferred to a greenhouse set at 20° C. for disease to develop. Fungicide formulation, application and disease assessment on the sprayed leaves followed the procedures as described in the Example A.

Uncinula necator = assay: Grape powdery mildew (UNCINE) disease control; conditions: Erysiphe necator, 24 h, 1 Day Protectant, read-out: UNCINE disease control rating
Description: Technical grades of materials were dissolved in acetone, which were then mixed with nine volumes of water containing 110 ppm Triton X-100. The fungicide solutions were applied onto wheat seedlings using an automated booth sprayer to run-off. All sprayed plants were allowed to air dry prior to further handling. All fungicides were evaluated using the aforementioned method for their activity vs. all target diseases. Wheat leaf blotch and brown rust activity were also evaluated using track spray applications, in which case the fungicides were formulated as EC formulations, containing 0.1% Trycol 5941 in the spray solutions. Wheat plants (variety Yuma) were grown from seed in a greenhouse in 50% mineral soil/50% soil-less Metro mix until the first leaf was fully emerged, with 7-10 seedlings per pot. These plants were inoculated with an aqueous spore suspension of Septoria tritici either prior to or after fungicide treatments. After inoculation the plants were kept in 100% relative humidity (one day in a dark dew chamber followed by two to three days in a lighted dew chamber at 20° C.) to permit spores to germinate and infect the leaf. The plants were then transferred to a greenhouse set at 20° C. for disease to develop. When disease symptoms were fully expressed on the l^st leaves of untreated plants, infection levels were assessed on a scale of 0 to 100 percent disease severity. Percent disease control was calculated using the ratio of disease severity on treated plants relative to untreated plants. Evaluation of Fungicidal Activity: Grape Powdery Mildew (Uncinula necator; Bayer Code […]) Grape seedlings (variety Carignane) were grown in soil-less Metro mix, with one plant per pot, and used in the test when approximately one month old. Plants were inoculated 24 hr after fungicide treatment by shaking spores from infected leaves over test plants. Plants were maintained in a greenhouse set at 20° C. until disease was fully developed. Fungicide formulation, application and disease assessment on the sprayed leaves followed the procedures as described in the Example A.

[2] = system: Magnaporthe grisea; Anamorph: Pyricularia oryzae; conditions: 1 Day Protectant, 100 ppm, rice
[3] = 24 h, 1 Day Protectant, read-out: SEPTTR 1DP disease control rating
[4] = 72 h, 3 Day Curative, read-out: SEPTTR 3DC disease control rating

With CCCO[C@H]1CCC[C@H](NC(=O)c2nccc(OC)c2OCOC(C)=O)C(=O)O[C@@H](C)[C@@H]1CCC(C)C [Compound 25, ((2-(((3S,7S,8S,9S)-8-isopentyl-9-methyl-2-oxo-7-propoxyoxonan-3-yl)carbamoyl)-4-methoxypyridin-3-yl)oxy)methyl acetate] the pest or weed control at 121.5 g/ha [1, 3] was < 70%, the pest or weed control at 121.5 g/ha [1, 4] was > 70% and the pest or weed control at 100 ppm (Rhyncosporium secalis) was > 70%. The pest or weed control at 100 ppm (Uncinula necator) was > 70%.

For CCCO[C@H]1CCC[C@H](NC(=O)c2nccc(OC)c2OC(C)=O)C(=O)O[C@@H](C)[C@@H]1CCC(C)C [Compound 74, 2-(((3S,7S,8S,9S)-8-isopentyl-9-methyl-2-oxo-7-propoxyoxonan-3-yl)carbamoyl)-4-methoxypyridin-3-yl acetate], the “PYRIOR disease control rating” value [2] was “A (>70)”, the pest or weed control at 121.5 g/ha [1, 3] was > 70% and the pest or weed control at 121.5 g/ha [1, 4] was > 70%. For the same compound, the pest or weed control at 100 ppm (Rhyncosporium secalis) was > 70% and the pest or weed control at 100 ppm (Uncinula necator) was > 70%.

For CCCC[C@H]1[C@H](C)OC(=O)[C@@H](NC(=O)c2nccc(OC)c2OCOC(C)=O)CCC[C@@H]1OCC1CC1 [Compound 73], the “PYRIOR disease control rating” value [2] was “A (>70)”, the pest or weed control at 121.5 g/ha [1, 3] was > 70% and the pest or weed control at 121.5 g/ha [1, 4] was > 70%. For the same compound, the pest or weed control at 100 ppm (Rhyncosporium secalis) was > 70% and the pest or weed control at 100 ppm (Uncinula necator) was > 70%.

COc1ccnc(C(=O)N[C@H]2CCC[C@H](OCC3CC3)[C@@H](Cc3ccc(F)cc3)[C@H](C)OC2=O)c1OCOC(C)=O [Compound 61] was tested, and the “PYRIOR disease control rating” value [2] was “A (>70)”, the pest or weed control at 121.5 g/ha [1, 3] was > 70% and the pest or weed control at 121.5 g/ha [1, 4] was > 70%. For the same compound, the pest or weed control at 100 ppm (Rhyncosporium secalis) was > 70% and the pest or weed control at 100 ppm (Uncinula necator) was > 70%.

With CCCO[C@H]1CCC[C@H](NC(=O)c2nccc(OC)c2OC(C)=O)C(=O)O[C@@H](C)[C@@H]1Cc1ccccc1 [Compound 70] the “PYRIOR disease control rating” value [2] was “A (>70)”, the pest or weed control at 100 ppm [1, 3] was > 70% and the pest or weed control at 121.5 g/ha [1, 3] was > 70%. For the same compound, the pest or weed control at 100 ppm [1, 4] was > 70%, the pest or weed control at 121.5 g/ha [1, 4] was > 70% and the pest or weed control at 100 ppm (Rhyncosporium secalis) was > 70%. The pest or weed control at 100 ppm (Uncinula necator) was > 70%.

For COc1ccnc(C(=O)N[C@H]2CCC[C@H](Oc3ccccc3)[C@@H](CCC(C)C)[C@H](C)OC2=O)c1OC(C)=O [Compound 36], the pest or weed control at 121.5 g/ha [1, 3] was > 70%, the pest or weed control at 121.5 g/ha [1, 4] was > 70% and the pest or weed control at 100 ppm (Rhyncosporium secalis) was > 70%. For the same compound, the pest or weed control at 100 ppm (Uncinula necator) was > 70%.

In the case of COc1ccnc(C(=O)N[C@H]2CCC[C@H](Oc3ccccc3)[C@@H](CCC(C)C)[C@H](C)OC2=O)c1OCOC(C)=O [Compound 40], the “PYRIOR disease control rating” value [2] is reported as “A (>70)”, the pest or weed control at 121.5 g/ha [1, 3] is reported as > 70% and the pest or weed control at 121.5 g/ha [1, 4] is reported as > 70%. For the same compound, the pest or weed control at 100 ppm (Rhyncosporium secalis) was > 70% and the pest or weed control at 100 ppm (Uncinula necator) was > 70%.

CCCC[C@H]1[C@H](C)OC(=O)[C@@H](NC(=O)c2nccc(OC)c2OCOC(C)=O)CCC[C@@H]1Oc1ccccc1 [Compound 33] was tested, and the “PYRIOR disease control rating” value [2] was “A (>70)”, the pest or weed control at 121.5 g/ha [1, 3] was > 70% and the pest or weed control at 121.5 g/ha [1, 4] was > 70%. For the same compound, the pest or weed control at 100 ppm (Rhyncosporium secalis) was > 70% and the pest or weed control at 100 ppm (Uncinula necator) was > 70%.
